SMILES strings stand for the structures. pIC50: −log10 of the molar value.

One assay concerns the target CDK5/p25 (Homo sapiens (Human), UniProt Q00535). The assay can be described thus: Invitrogen Z'-LYTE kinase assay CDK5/p25 (assay ID 318, Km app, 10-point titration). Type of assay: biochemical. As to conditions: CDK5/p25, Km app ATP. From the text: (§1) CDK2 and CDK5 IC50 data were attained through the use of Invitrogen™ commercial assays. The method for CDK2 (assay ID: 315, kinase|Z'-LYTE™|CDK2/Cyclin A|Km app) used a 10-point titration. The method for CDK5 (assay ID: 318, kinase|Z'-LYTE™|CDK5/p25|Km app) used a 10-point titration.

Another assay concerns the target CDK2/Cyclin A (Homo sapiens (Human), UniProt P24941). The assay can be described thus: Invitrogen Z'-LYTE kinase assay CDK2/Cyclin A (assay ID 315, Km app, 10-point titration). As to conditions: Km app ATP. Type of assay: biochemical.
Excerpt: as §1

CDK5/p25, sequence (Q00535 whole entry): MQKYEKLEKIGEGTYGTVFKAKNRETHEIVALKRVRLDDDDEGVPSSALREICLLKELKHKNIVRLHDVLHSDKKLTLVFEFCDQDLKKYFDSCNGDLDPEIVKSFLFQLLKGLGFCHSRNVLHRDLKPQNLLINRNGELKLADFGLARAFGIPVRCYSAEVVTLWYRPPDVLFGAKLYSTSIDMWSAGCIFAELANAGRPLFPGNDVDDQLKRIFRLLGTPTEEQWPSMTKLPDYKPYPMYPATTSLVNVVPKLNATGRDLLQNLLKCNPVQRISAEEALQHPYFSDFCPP
CDK5/p25, sequence (Q15078 99-307 partner): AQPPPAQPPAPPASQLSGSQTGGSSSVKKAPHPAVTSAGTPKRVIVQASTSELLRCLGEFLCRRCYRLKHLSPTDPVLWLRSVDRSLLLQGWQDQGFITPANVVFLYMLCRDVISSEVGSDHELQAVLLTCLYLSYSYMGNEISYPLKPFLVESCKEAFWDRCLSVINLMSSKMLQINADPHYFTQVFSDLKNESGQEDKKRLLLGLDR

Regarding `NC(=O)c1c(F)cccc1Nc1nc(NC2CCN(S(=O)(=O)CCNC(=O)CCOCCOCCOCCOCCOCCOCCOCCOCCNc3cccc4c3C(=O)N(C3CCC(=O)NC3=O)C4=O)CC2)ncc1Br` (stereo not shown) [Compound 4, N-(2-((4-((5-bromo-4-((2-carbamoyl-3-fluorophenyl)amino)pyrimidin-2-yl)amino)piperidin-1-yl)sulfonyl)ethyl)-1-((2-(2,6-dioxopiperidin-3-yl)-1,3-dioxoisoindolin-4-yl)amino)-3,6,9,12,15,18,21,24-octaoxaheptacosan-27-amide], the pIC50 was 8.08 against CDK5/p25 and 8.14 against CDK2/Cyclin A.
In the case of `Cc1ncsc1-c1ccc([C@H](C)NC(=O)[C@@H]2C[C@@H](O)CN2C(=O)[C@@H](NC(=O)CCC(=O)NCCS(=O)(=O)N2CCC(Nc3ncc(Br)c(Nc4cccc(F)c4C(N)=O)n3)CC2)C(C)(C)C)cc1` [Compound 12, N^1-(2-((4-((5-bromo-4-((2-carbamoyl-3-fluorophenyl)amino)pyrimidin-2-yl)amino)piperidin-1-yl)sulfonyl)ethyl)-N^4—((S)-1-((2S,4R)-4-hydroxy-2-(((S)-1-(4-(4-methylthiazol-5-yl)phenyl)ethyl)carbamoyl)pyrrolidin-1-yl)-3,3-dimethyl-1-oxobutan-2-yl)succinamide], the negative-log IC50 (pIC50) at CDK5/p25 was 8.43.
On to `O=C(CCOCCOCCOCCOCCNc1cccc2c1C(=O)N(C1CCC(=O)NC1=O)C2=O)NCCS(=O)(=O)N1CCC(Nc2ncc(Br)c(N3CCCc4ccccc43)n2)CC1` (stereo not shown) [Compound 18, N-(2-((4-((5-bromo-4-(3,4-dihydroquinolin-1(2H)-yl)pyrimidin-2-yl)amino)piperidin-1-yl)sulfonyl)ethyl)-1-((2-(2,6-dioxopiperidin-3-yl)-1,3-dioxoisoindolin-4-yl)amino)-3,6,9,12-tetraoxapentadecan-15-amide], for which the figures for the pIC50 against CDK5/p25 and against CDK2/Cyclin A were 7.56 and 7.63, respectively.
`Cc1ncsc1-c1ccc([C@H](C)NC(=O)[C@@H]2C[C@@H](O)CN2C(=O)[C@@H](NC(=O)CCOCCOCCOCCC(=O)NCCS(=O)(=O)N2CCC(Nc3ncc(Br)c(Nc4cccc(F)c4C(N)=O)n3)CC2)C(C)(C)C)cc1` [Compound 9, (2S,4R)-1-((S)-19-((4-((5-bromo-4-((2-carbamoyl-3-fluorophenyl)amino)pyrimidin-2-yl)amino)piperidin-1-yl)sulfonyl)-2-(tert-butyl)-4,16-dioxo-7,10,13-trioxa-3,17-diazanonadecanoyl)-4-hydroxy-N—((S)-1-(4-(4-methylthiazol-5-yl)phenyl)ethyl)pyrrolidine-2-carboxamide]: the negative logarithm of the IC50 (pIC50) at CDK5/p25 is 8.39; against CDK2/Cyclin A, 8.12.
Turning to `NC(=O)c1c(F)cccc1Nc1nc(NC2CCN(S(=O)(=O)CCNC(=O)CCOCCOCCOCCOCCNc3cccc4c3C(=O)N(C3CCC(=O)NC3=O)C4=O)CC23CC3)ncc1Br` (stereo not shown) [Compound 19, N-(2-((8-((5-bromo-4-((2-carbamoyl-3-fluorophenyl)amino)pyrimidin-2-yl)amino)-5-azaspiro[2.5]octan-5-yl)sulfonyl)ethyl)-1-((2-(2,6-dioxopiperidin-3-yl)-1,3-dioxoisoindolin-4-yl)amino)-3,6,9,12-tetraoxapentadecan-15-amide], the negative-log IC50 (pIC50) against CDK5/p25 is 7.15; on CDK2/Cyclin A, 6.94.
With `Cc1ncsc1-c1ccc([C@H](C)NC(=O)[C@@H]2C[C@@H](O)CN2C(=O)[C@@H](NC(=O)CCCCC(=O)NCCS(=O)(=O)N2CCC(Nc3ncc(Br)c(Nc4cccc(F)c4C(N)=O)n3)CC2)C(C)(C)C)cc1` [Compound 10, N^1-(2-((4-((5-bromo-4-((2-carbamoyl-3-fluorophenyl)amino)pyrimidin-2-yl)amino)piperidin-1-yl)sulfonyl)ethyl)-N^6—((S)-1-((2S,4R)-4-hydroxy-2-(((S)-1-(4-(4-methylthiazol-5-yl)phenyl)ethyl)carbamoyl)pyrrolidin-1-yl)-3,3-dimethyl-1-oxobutan-2-yl)adipamide], the pIC50 against CDK5/p25 was 8.37; against CDK2/Cyclin A, 8.04.
On the same counts, the results for `NC(=O)c1c(F)cccc1Nc1nc(NC2CCN(S(=O)(=O)CCNC(=O)CCOCCOCCOc3cccc4c3C(=O)N(C3CCC(=O)NC3=O)C4=O)CC2)ncc1Br` (stereo not shown) [Compound 3, 2-((5-bromo-2-((1-((2-(3-(2-(2-((2-(2,6-dioxopiperidin-3-yl)-1,3-dioxoisoindolin-4-yl)oxy)ethoxy)ethoxy)propanamido)ethyl)sulfonyl)piperidin-4-yl)amino)pyrimidin-4-yl)amino)-6-fluorobenzamide] are 8.32 and 8.31.
For `Cc1cc(S(=O)(=O)NCCOCCOCCOCCOCCNC(=O)COc2cccc3c2C(=O)N(C2CCC(=O)NC2=O)C3=O)ccc1Nc1ncc(Br)c(Nc2cccc(F)c2C(N)=O)n1` (stereo not shown) [Compound 46, 2-((5-bromo-2-((4-(N-(1-((2-(2,6-dioxopiperidin-3-yl)-1,3-dioxoisoindolin-4-yl)oxy)-2-oxo-6,9,12,15-tetraoxa-3-azaheptadecan-17-yl)sulfamoyl)-2-methylphenyl)amino)pyrimidin-4-yl)amino)-6-fluorobenzamide], the negative logarithm of the IC50 (pIC50) at CDK5/p25 was 8.85; at CDK2/Cyclin A, 8.77.
Turning to `NC(=O)c1c(F)cccc1Nc1nc(NC2CCN(S(=O)(=O)CCNC(=O)CCCCCCCCC#Cc3cccc4c3CN(C3CCC(=O)NC3=O)C4=O)CC2)ncc1Br` (stereo not shown) [Compound 14, 2-((5-bromo-2-((1-((2-(11-(2-(2,6-dioxopiperidin-3-yl)-1-oxoisoindolin-4-yl)undec-10-ynamido)ethyl)sulfonyl)piperidin-4-yl)amino)pyrimidin-4-yl)amino)-6-fluorobenzamide], the negative logarithm of the IC50 (pIC50) against CDK5/p25 was 7.51.
`O=C(CCCCCCCCOc1cccc2c1C(=O)N(C1CCC(=O)NC1=O)C2=O)NCCS(=O)(=O)N1CCC(Nc2ncc(Br)c(Nc3cccc4c3OCO4)n2)CC1` (stereo not shown) [Compound 17, N-(2-((4-((4-(benzo[d][1,3]dioxol-4-ylamino)-5-bromopyrimidin-2-yl)amino)piperidin-1-yl)sulfonyl)ethyl)-9-((2-(2,6-dioxopiperidin-3-yl)-1,3-dioxoisoindolin-4-yl)oxy)nonanamide]: the pIC50 against CDK5/p25 was 6.03; against CDK2/Cyclin A it was 6.60.
In the case of `Cc1cc(Nc2ncc(Br)c(Nc3cccc(F)c3C(N)=O)n2)ccc1S(=O)(=O)NCCOCCOCCOCCOCCNc1cccc2c1C(=O)N(C1CCC(=O)NC1=O)C2=O` (stereo not shown) [Compound 25, 2-((5-bromo-2-((4-(N-(14-((2-(2,6-dioxopiperidin-3-yl)-1,3-dioxoisoindolin-4-yl)amino)-3,6,9,12-tetraoxatetradecyl)sulfamoyl)-3-methylphenyl)amino)pyrimidin-4-yl)amino)-6-fluorobenzamide], the negative-log IC50 (pIC50) against CDK5/p25 was 8.15; at CDK2/Cyclin A it was 8.09.
On the same counts, the results for `Cc1cc(S(=O)(=O)NCCCCCCCCCCNC(=O)COc2cccc3c2C(=O)N(C2CCC(=O)NC2=O)C3=O)ccc1Nc1ncc(Br)c(Nc2cccc(F)c2C(N)=O)n1` (stereo not shown) [Compound 47, 2-((5-bromo-2-((4-(N-(10-(2-((2-(2,6-dioxopiperidin-3-yl)-1,3-dioxoisoindolin-4-yl)oxy)acetamido)decyl)sulfamoyl)-2-methylphenyl)amino)pyrimidin-4-yl)amino)-6-fluorobenzamide] are 7.74 and 7.71.
As to `Cn1ncc(Nc2nc(NC3CCN(S(=O)(=O)CCNC(=O)CCCCCCCCOc4cccc5c4C(=O)N(C4CCC(=O)NC4=O)C5=O)CC3)ncc2Br)c1C(N)=O` (stereo not shown) [Compound 22, 4-((5-bromo-2-((1-((2-(9-((2-(2,6-dioxopiperidin-3-yl)-1,3-dioxoisoindolin-4-yl)oxy)nonanamido)ethyl)sulfonyl)piperidin-4-yl)amino)pyrimidin-4-yl)amino)-1-methyl-1H-pyrazole-5-carboxamide], the pIC50 against CDK5/p25 and on CDK2/Cyclin A was 8.24 in each case.
As for `Cc1ncsc1-c1ccc([C@H](C)NC(=O)[C@@H]2C[C@@H](O)CN2C(=O)[C@@H](NC(=O)CCOCCOCCC(=O)NCCS(=O)(=O)N2CCC(Nc3ncc(Br)c(Nc4cccc(F)c4C(N)=O)n3)CC2)C(C)(C)C)cc1` [Compound 11, (2S,4R)-1-((S)-16-((4-((5-bromo-4-((2-carbamoyl-3-fluorophenyl)amino)pyrimidin-2-yl)amino)piperidin-1-yl)sulfonyl)-2-(tert-butyl)-4,13-dioxo-7,10-dioxa-3,14-diazahexadecanoyl)-4-hydroxy-N—((S)-1-(4-(4-methylthiazol-5-yl)phenyl)ethyl)pyrrolidine-2-carboxamide], on CDK5/p25, the pIC50 is 8.32.
Same read-out and setting: for `NC(=O)c1c(F)cccc1Nc1nc(NC2CCN(S(=O)(=O)CCNC(=O)CCCCCCCCCCc3cccc4c3CN(C3CCC(=O)NC3=O)C4=O)CC2)ncc1Br` (stereo not shown) [Compound 15, 2-((5-bromo-2-((1-((2-(11-(2-(2,6-dioxopiperidin-3-yl)-1-oxoisoindolin-4-yl)undecanamido)ethyl)sulfonyl)piperidin-4-yl)amino)pyrimidin-4-yl)amino)-6-fluorobenzamide] the value was 7.74; for `NC(=O)c1c(F)cccc1Nc1nc(NC2CCN(S(=O)(=O)CCNC(=O)CCC(=O)NCCCCCNc3cccc4c3C(=O)N(C3CCC(=O)NC3=O)C4=O)CC2)ncc1Br` (stereo not shown) [Compound 13, N^1-(2-((4-((5-bromo-4-((2-carbamoyl-3-fluorophenyl)amino)pyrimidin-2-yl)amino)piperidin-1-yl)sulfonyl)ethyl)-N^4-(5-((2-(2,6-dioxopiperidin-3-yl)-1,3-dioxoisoindolin-4-yl)amino)pentyl)succinamide], 8.37.
Regarding `O=C(CCCCCCCCC#Cc1cccc2c1CN(C1CCC(=O)NC1=O)C2=O)NCCS(=O)(=O)N1CCC(Nc2ncc(Br)c(Nc3cccc4c3OCO4)n2)CC1` (stereo not shown) [Compound 16, N-(2-((4-((4-(benzo[d][1,3]dioxol-4-ylamino)-5-bromopyrimidin-2-yl)amino)piperidin-1-yl)sulfonyl)ethyl)-11-(2-(2,6-dioxopiperidin-3-yl)-1-oxoisoindolin-4-yl)undec-10-ynamide], the negative logarithm of the IC50 (pIC50) against CDK5/p25 was 5.36. Against the preceding molecule, the pIC50 is 3.01 log units lower.

(Values after US12466809B2, “CDK2/5 degraders and uses thereof” (DANA-FARBER CANCER INSTITUTE, INC., priority 2019, dated 2025).)
